In US11376326B2, “GPC3-targeting therapeutic agent which is administered to patient for whom the GPC3-targeting therapeutic agent is effective” (CHUGAI SEIYAKU KABUSHIKI KAISHA, priority 2015, dated 2022):
Where two headings read alike, the source gives them in different places.

Experiments:
[1] = system: human cell line HepG2 strongly expressing GPC3; experiment: Antitumor effect in mouse graft models using HepG2; type: in vivo; conditions: HepG2 graft mice; GC33 or ag-GC33 5 mg/kg tail vein once a week x3; sorafenib 5 mg/kg oral five times a week for 3 weeks; from day 18; FIG. 1
Method: GC33 or ag-GC33 was administered at 5 mg/kg to the tail vein of each mouse once a week a total of three times from 18 days after HepG2 transplantation. Sorafenib was orally administered at 5 mg/kg to each mouse five times a week for 3 weeks from 18 days after HepG2 transplantation.

[2] = system: advanced hepatocellular carcinoma; conditions: cited from earlier work
[3] = system: sGPC3-N; experiment: sGPC3-N in mouse plasma by ELISA (GT30/GT607) at completion of antitumor evaluation; type: in vivo; conditions: HepG2 graft mice, FIG. 2
Method: (§1) At the completion of the antitumor effect evaluation, plasma was collected from each mouse. Fragments of a soluble form of GPC3 were assayed by two types of ELISA methods differing in the combination of anti-GPC3 antibodies. In order to detect the fragments of a soluble form of GPC3 in ELISA, mouse monoclonal antibodies binding to the N-terminal subunit of human GPC3 were prepared as described in WO2004/022739. Hereinafter, the obtained antibodies are referred to as GT30 and GT607 for the sake of convenience. Also, mouse monoclonal antibodies binding to the C-terminal subunit of human GPC3 were prepared as described in WO2004/022739. Hereinafter, the obtained antibodies are referred to as GT96 and M3C11 for the sake of convenience. […]
(§2) Specifically, the detection of sGPC3-N and the detection of sGPC3-C by ELISA were performed as follows: first, the GT30 antibody diluted to 1 μg/mL with a carbonatebicarbonate buffer (manufactured by Sigma-Aldrich Co., LLC) or the M3C11 antibody adjusted to 128 μg/mL in the same way thereas was added at 50 μL/well to a 96-well microplate (manufactured by Meso Scale Discovery (MSD), Multi-array 96-well plate) and stirred at room temperature for 1 hour. […] After washing five times with a washing solution, a substrate solution (manufactured by Meso Scale Discovery (MSD), MSD Read Buffer T (4×) with Surfactant) was added thereto at 100 μL/well. […]

[4] = system: advanced hepatocellular carcinoma; conditions: cited from earlier work; remark: listed apart in the source
[5] = system: advanced hepatocellular carcinoma; conditions: Asian trial; cited from earlier work
[6] = molecular target: human GPC3 (Homo sapiens, UniProt P51654); conditions: cited from earlier work
[7] = system: sGPC3-C; experiment: sGPC3-C in mouse plasma by ELISA (GT96/M3C11) at completion of antitumor evaluation; type: in vivo; conditions: HepG2 graft mice, FIG. 3
Method: as §1, §2

| Molecule | tumor enlargement inhibitory effect (tumor volume) [1] | HR of survival duration ([2]; both trials, versus placebo) | objective response rate ([2]; in vivo) | time to symptomatic progression ([2]; in vivo) | sGPC3-N level in plasma [3] | time to tumor radiological progression ([4]; European and American trial) | survival duration ([4]; SHARP trial) | survival duration [5] | time to tumor radiological progression [5] | binding affinity to human GPC3 [6] | sGPC3-C level in plasma [7] |
| --- | --- | --- | --- | --- | --- | --- | --- | --- | --- | --- | --- |
| CNC(=O)c1cc(Oc2ccc(NC(=O)Nc3ccc(Cl)c(C(F)(F)F)c3)cc2)ccn1 [sorafenib] | the tumor enlargement inhibitory effect was weaker than that of GC33 | 0.68 | low | no prolongation | equivalent to the GC33 administration group | 5.5 months | 10.7 months | 6.5 months | 2.8 months |  |  |
| GC33: recombinant humanized IgG1 monoclonal antibody binding to human GPC3 with high affinity (WO2006/006693) | tumor enlargement was inhibited as compared with the control group |  |  |  | a lower level of sGPC3-N was found as compared with the control group |  |  |  |  | high affinity | higher in the GC33 administration group compared with the control group, the ag-GC33 group, and the sorafenib group |
